≈ marks a conversion by molar mass, not a printed value.
Tests used:
[1] = tested on: Escherichia coli (ATCC 35218); test: broth microdilution MIC (CLSI M07-A9), resazurin; type: cell-based; conditions: ATCC35218, 24 h, read-out: MIC Ec-1
Procedure: (§1) Microbiological studies were performed according to following guides: CLSI reference […]-A9 broth microdilution method[49] for bacterial strains and EUCAST definitive (EDef 7.1) method[50] for Candida species. Synthesized compounds were tested for their in vitro growth inhibitory activity against Staphylococcus aureus (ATCC 25923), Enterococcus faecalis (ATCC 29212), Listeria monocytogenes (ATCC 1911), Klebsiella pneumoniae (NCTC 9633), Escherichia coli (ATCC 35218), E. coli (ATCC 25922) Candida albicans (ATCC 24433) Candida krusei (ATCC 6258) and Candida parapsilosis (ATCC 22019). Chloramphenicol and ketoconazole were used as control drugs. The cultures were obtained from the Mueller-Hinton broth (Difco) for the bacterial strains after overnight incubation at 37 °C. The yeasts were maintained in Roswell Park Memorial Institute (RPMI) after overnight incubation at 37 °C. […] Testing was carried out in Mueller-Hinton broth and RPMI at pH =7, and the two-fold serial dilutions technique was applied. The last well on the microplates containing only inoculated broth was kept as controls and the last well with no growth of microorganism was recorded to represent the minimum inhibitory concentration (MIC) expressed in μg/mL. For both the antibacterial and antifungal assays, the compounds were dissolved in DMSO. […] The completed plates were incubated for 24 h. At the end of the incubation, resazurin (20 μg/mL) was added into each well and plates were incubated for 2 h. MIC values were determined using a microplate reader at […]. Synthesized compounds (6a-6m) were evaluated for antimicrobial activity against various microorganisms such as Staphylococcus aureus (ATCC 25923), Enterococcus faecalis (ATCC 29212), Listeria monocytogenes (ATCC 1911), Klebsiella pneumoniae (NCTC 9633), Escherichia coli (ATCC 35218), E. coli (ATCC 25922)Candida albicans (ATCC 24433) Candida krusei (ATCC 6258) and Candida parapsilosis (ATCC 22019). […] Chloramphenicol and ketoconazole were used as standard drugs in the activity test. […] Besides, the compounds 6d, 6h, 6l and 6m indicated stronger antibacterial activity than the other compounds in the series.

[2] = tested on: Klebsiella pneumoniae (NCTC 9633); test: broth microdilution MIC (CLSI M07-A9), resazurin; type: cell-based; conditions: 24 h
Procedure: as §1

[3] = tested on: Listeria monocytogenes (ATCC 1911); test: broth microdilution MIC (CLSI M07-A9), resazurin; type: cell-based; conditions: ATCC1911, 24 h
Procedure: as §1

[4] = tested on: Escherichia coli (ATCC 25922); test: broth microdilution MIC (CLSI M07-A9), resazurin; type: cell-based; conditions: ATCC25922, 24 h, read-out: MIC Ec-2
Procedure: as §1

[5] = tested on: Staphylococcus aureus (ATCC 25923); test: broth microdilution MIC (CLSI M07-A9), resazurin; type: cell-based; conditions: ATCC25923, 24 h
Procedure: as §1

[6] = tested on: Enterococcus faecalis (ATCC 29212); test: broth microdilution MIC (CLSI M07-A9), resazurin; type: cell-based; conditions: ATCC29212, 24 h
Procedure: as §1

[7] = tested on: Candida krusei (ATCC 6258); test: broth dilution MIC (EUCAST EDef 7.1), resazurin; type: cell-based; conditions: Pichia kudriavzevii, ATCC6258, 24 h
Procedure: as §1

[8] = tested on: Candida albicans (ATCC 24433); test: broth dilution MIC (EUCAST EDef 7.1), resazurin; type: cell-based; conditions: ATCC24433, 24 h
Procedure: as §1

[9] = tested on: Candida parapsilosis (ATCC 22019); test: broth dilution MIC (EUCAST EDef 7.1), resazurin; type: cell-based; conditions: ATCC22019, 24 h
Procedure: as §1

COX-2 = molecular target: T1, COX-2 (Homo sapiens, UniProt P35354); test: fluorometric COX-2 inhibitor screening kit assay; type: biochemical; conditions: 25 °C
T1 construct: purchased Biovision K547-100
T1 sequence (P35354 18-604): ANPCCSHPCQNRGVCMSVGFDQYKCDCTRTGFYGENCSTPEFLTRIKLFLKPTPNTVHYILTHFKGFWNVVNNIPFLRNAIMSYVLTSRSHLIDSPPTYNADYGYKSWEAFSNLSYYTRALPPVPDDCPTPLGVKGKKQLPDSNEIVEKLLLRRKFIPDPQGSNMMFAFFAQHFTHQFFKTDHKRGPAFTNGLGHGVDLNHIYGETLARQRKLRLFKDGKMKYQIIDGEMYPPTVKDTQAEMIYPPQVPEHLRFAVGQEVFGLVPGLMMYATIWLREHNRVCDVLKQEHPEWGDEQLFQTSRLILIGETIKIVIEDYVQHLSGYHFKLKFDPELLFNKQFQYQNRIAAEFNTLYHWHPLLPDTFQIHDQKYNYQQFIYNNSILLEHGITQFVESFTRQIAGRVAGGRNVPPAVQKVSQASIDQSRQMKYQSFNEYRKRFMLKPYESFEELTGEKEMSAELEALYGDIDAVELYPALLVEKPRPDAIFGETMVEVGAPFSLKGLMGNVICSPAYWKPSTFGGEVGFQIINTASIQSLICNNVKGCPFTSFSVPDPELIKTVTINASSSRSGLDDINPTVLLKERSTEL
Procedure: (§2) Inhibitory potency of the compounds against COX-1 and COX-2 enzymes was determined using fluorometric COX-1 and COX-2 inhibitor screening kits (Biovision, Zurich, Switzerland). Experimental protocol was followed as described in the guides of the supplier[47]^,[48]. All of the pipettings in the assay were performed by Biotek Precision robotic system (BioTek Instruments, Inc., Winooski, VT). […] Appropriate two points (T1 and T2) in the linear range of the plot were chosen, and the corresponding fluorescence values (RFU1 and RFU2) were obtained. The slope for all samples, including enzyme control (EC), by dividing the net ΔRFU (RFU2–RFU1) values by the time ΔT (T2–T1) were calculated by using following equation: % Relative inhibition=(Slope of EC-Slope of S/Slope of EC)×100
(§3) This initial in vitro assay was done with two concentrations (10^−3 and 10^−4 M) for all compounds. […] The IC50 value was calculated from the plots of enzyme activity against concentrations by applying regression analyses on GraphPad Prism Version 5 (GraphPad Software, La Jolla, CA).
(§4) Selectivity indexes (SI) were expressed as IC50 (COX-1)/IC50 (COX-2). Selectivity toward COX-2 decreases as the corresponding SI decreases while selectivity toward COX-1 isoform increases as the corresponding SI decreases.

COX-1 = molecular target: T2, COX-1 (Ovis aries, UniProt P05979); test: fluorometric COX-1 inhibitor screening kit assay; type: biochemical; conditions: for SI (selectivity index): IC50 (COX-1)/IC50 (COX-2); for IC50: fluorometric kit, 25 °C; for Selectivity: isoform preferred according to SI
T2 construct: purchased Biovision K548-100
T2 sequence (P05979 25-600): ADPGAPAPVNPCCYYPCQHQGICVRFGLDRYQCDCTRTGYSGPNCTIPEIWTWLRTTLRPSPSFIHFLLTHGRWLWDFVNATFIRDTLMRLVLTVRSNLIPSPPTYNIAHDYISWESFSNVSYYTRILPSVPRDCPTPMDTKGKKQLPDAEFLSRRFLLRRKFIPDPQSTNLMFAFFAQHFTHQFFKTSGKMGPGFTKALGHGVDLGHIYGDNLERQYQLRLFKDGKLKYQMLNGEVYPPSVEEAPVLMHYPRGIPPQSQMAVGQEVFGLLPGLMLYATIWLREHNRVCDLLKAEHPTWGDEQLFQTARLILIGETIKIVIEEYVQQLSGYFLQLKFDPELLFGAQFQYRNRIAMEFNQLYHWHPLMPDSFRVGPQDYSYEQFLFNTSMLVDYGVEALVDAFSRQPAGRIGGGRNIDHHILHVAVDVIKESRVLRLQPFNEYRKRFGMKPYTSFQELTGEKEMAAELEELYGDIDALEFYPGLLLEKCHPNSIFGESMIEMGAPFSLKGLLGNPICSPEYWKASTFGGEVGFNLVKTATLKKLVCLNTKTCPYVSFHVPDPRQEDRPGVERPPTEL
Procedure: as §2, §3, §4

Compound | MIC [1] [µg/mL] | MIC Kp [2] [µg/mL] | MIC [3] [µg/mL] | MIC [4] [µg/mL] | MIC [5] [µg/mL] | MIC [6] [µg/mL] | MIC [7] [µg/mL] | MIC [8] [µg/mL] | MIC [9] [µg/mL] | IC50 (COX-2) [µM] | SI (selectivity index) (COX-1) | IC50 (COX-1) [µM] | Selectivity (COX-1) | melting point [°C]
CC(C(=O)O)c1ccc(CSc2nncn2C)cc1 (stereo not drawn) [Compound 6d, 2-(4-(((4-Methyl-4 H-1,2,4-triazol-3-yl)thio)methyl)phenyl)propanoic acid] | 6.25 (≈ 22.5 µM) | 6.25 (≈ 22.5 µM) | 12.5 (≈ 45.1 µM) | 12.5 (≈ 45.1 µM) | 12.5 (≈ 45.1 µM) | 6.25 (≈ 22.5 µM) | 50 (≈ 180 µM) | 50 (≈ 180 µM) | 50 (≈ 180 µM) | 39.9 | 0.62 | 24.6 | COX-1 | –
CC(C(=O)O)c1ccc(CSc2nnnn2C)cc1 (stereo not drawn) [Compound 6e, 2-(4-(((1-Methyl-1 H-tetrazol-5-yl)thio)methyl)phenyl)propanoic acid] | 6.25 (≈ 22.5 µM) | 6.25 (≈ 22.5 µM) | 12.5 (≈ 44.9 µM) | 12.5 (≈ 44.9 µM) | 12.5 (≈ 44.9 µM) | 12.5 (≈ 44.9 µM) | 50 (≈ 180 µM) | 50 (≈ 180 µM) | 50 (≈ 180 µM) | 36.3 | 0.60 | 21.8 | COX-1 | –
CC(C(=O)O)c1ccc(CSc2nc3ccccc3s2)cc1 (stereo not drawn) [Compound 6f, 2-(4-((Benzo[d]thiazol-2-ylthio)methyl)phenyl)propanoic acid] | 6.25 (≈ 19 µM) | 12.5 (≈ 37.9 µM) | 12.5 (≈ 37.9 µM) | 12.5 (≈ 37.9 µM) | 12.5 (≈ 37.9 µM) | 12.5 (≈ 37.9 µM) | 100 (≈ 304 µM) | 100 (≈ 304 µM) | 50 (≈ 152 µM) | 4.41 | 0.54 | 2.36 | COX-1 | 128.2 to 130.8
CC(C(=O)O)c1ccc(CSc2nc3cc(Cl)ccc3s2)cc1 (stereo not drawn) [Compound 6g, 2-(4-(((5-Chlorobenzo[d]thiazol-2-yl)thio)methyl)phenyl)propanoic acid] | 6.25 (≈ 17.2 µM) | 12.5 (≈ 34.4 µM) | 12.5 (≈ 34.4 µM) | 12.5 (≈ 34.4 µM) | 12.5 (≈ 34.4 µM) | 12.5 (≈ 34.4 µM) | 100 (≈ 275 µM) | 100 (≈ 275 µM) | 50 (≈ 137 µM) | 4.25 | 0.58 | 2.46 | COX-1 | 162.3 to 164.7
CC(=O)N1CCN(c2ccc(OCC3COC(Cn4ccnc4)(c4ccc(Cl)cc4Cl)O3)cc2)CC1 (stereo not drawn) [Ketoconazole, reference compound] | – | – | – | – | – | – | 0.78 (≈ 1.47 µM) | 0.78 (≈ 1.47 µM) | 0.78 (≈ 1.47 µM) | – | – | – | – | –

Reference: paper PMC6445163, “Design, synthesis, and evaluation of novel 2-phenylpropionic acid derivatives as dual COX inhibitory-antibacterial agents” (Journal of Enzyme Inhibition and Medicinal Chemistry, 2017)
